Test results published in paper PMC11513892, “Discovery of a Series of Macrocycles as Potent Inhibitors of Leishmania Infantum” (Journal of Medicinal Chemistry, 2024).
Like-named read-outs stand apart in the source and are kept apart here.

How the values were obtained:
[1] = Chromatographic Log D at pH 7.4; type: physicochemical; conditions: 1-octanol/PBS pH 7.4, determined by chromatography, mean of two measurements
Experimental: (§1) The kinetic solubility in phosphate buffered saline at pH 7.4, chromatographic Log D at pH 7.4, cell permeability across a MDCK-MDR1 cell monolayer at pH 7.4, and the clearance in mouse liver microsomes of 1–12 was determined at TCG Lifesciences.

[2] = Kinetic solubility in phosphate buffered saline at pH 7.4; type: physicochemical
Experimental: as §1

[3] = Clearance in human microsomes; type: in vitro ADME; conditions: CSV supplement; for microsomal CLint: human, microsomes, read-out: CLint in vitro Human Microsomes
Excerpt: Supplement jm4c01370_si_002.csv, table | column: CLint in vitro Human Microsomes µL/min/mg; t(1/2) min

L. infantum = assay: Growth of L. infantum in infected primary mouse macrophages (PMMs), phenotypic assay; type: cell-based, Leishmania infantum; conditions: for EC50: Leishmania infantum, Macrophage
Excerpt: (§2) We previously reported the synthesis of a series of macrocycles, including 1 (Figure 2A), designed to investigate how structural features influence molecular chameleonicity.[15],[21] Originating from the structural similarities between 1 and hymenocardine, we investigated 1 in screens for P. falciparum and four kinetoplastid parasites: T. b. brucei, T. b. rhodesiense, T. cruzi, and L. infantum. In the screens, we also included compounds 2 and 3 (Figure 2A), which were obtained from an intermediate late in the synthetic route to 1. Since very few validated protein targets relevant to clearance of parasites are known, phenotypic assays were used to investigate the antiparasitic activity for all five parasites. For malaria, the P. falciparum blood stage 3D7 strain was used to test the three compounds. For the two Trypanosoma brucei species, the reduction in trypomastigote growth in culture medium was determined after the addition of 1–3. For T. cruzi, the intracellular parasite growth in infected human fibroblasts (MRC-5 cell line) was assessed in the presence and absence of the three inhibitors. Similarly, the growth of L. infantum was assessed in infected primary mouse macrophages (PMMs) in the presence and absence of the inhibitors. […] The assays for T. cruzi and L. infantum are complex, i.e., they determine the degree of inhibition of parasitic replication in a mammalian cell line; this complexity may lead to a high variability for some compounds.
(§3) The potency of macrocycles 1–12 to inhibit the growth of L. infantum was determined in a phenotypic assay in which the parasite was grown in primary peritoneal mouse macrophages (PMMs). To understand whether the SAR for inhibition of parasitic growth is impacted by low cell permeability, the permeability of compounds 1–12 was determined separately. Madin-Darby canine kidney (MDCK) cells transfected with the human MDR1 (multidrug resistance 1) gene (MDCK-MDR1 cells) were used to determine permeabilities in the apical to basolateral direction (Papp AB) as well as efflux ratios (ERs). […] Lipophilicity (Log D at pH 7.4), aqueous kinetic solubility and mouse liver microsomal metabolism were also determined for 1–12, and are discussed separately (cf. physiochemical properties and ADMET, below).
(§4) The growth of the P. falciparum blood stage 3D7 strain,[53] the two T. brucei species in axenic cultures,[54]T. cruzi in infected human fibroblasts (MRC-5 cell line),[55] and of L. infantum in infected primary mouse macrophages (PMMs)[56] was determined as previously reported in the presence and absence of inhibitors 1–12.

T. cruzi = assay: Intracellular growth of T. cruzi in infected human fibroblasts (MRC-5 cell line); type: cell-based; conditions: Trypanosoma cruzi
Excerpt: as §2, §4

[4] = system: P. falciparum blood stage 3D7 strain; assay: Growth of P. falciparum blood stage 3D7 strain (phenotypic); type: cell-based, Plasmodium falciparum; conditions: Figure 2A; for EC50: Plasmodium falciparum, 3D7, mean (SD) from 2 to 14 measurements
Excerpt: as §2, §4

T. b. rhodesiense = assay: Growth of T. b. rhodesiense trypomastigotes in axenic culture; type: cell-based, Trypanosoma brucei rhodesiense; conditions: for EC50: Trypanosoma brucei, RHODESIENSE / STIB900, CSV supplement, decimal comma, read-out: EC50 T.b. rhodesiense STIB 900; for activity as inhibitor of T. b. rhodesiense (in words): text on Table S1
Excerpt: as §2, §4

MRC-5 cells = assay: Host cell cytotoxicity in MRC-5 cells; type: cell-based, human; conditions: CSV supplement; decimal comma
MDR1 = assay: in vitro; type: in vitro ADME, canine; conditions: dog; for Papp B→A: MDCK-MDR1, pH 7.4; for Papp A→B: MDCK-MDR1, pH 7.4, Papp AB
Experimental: as §3, §1

[5] = Clearance in mouse liver microsomes; type: in vitro ADME; conditions: for microsomal CLint: mouse, liver microsomes
Experimental: as §1

T. b. brucei = assay: Growth of T. b. brucei trypomastigotes in axenic culture; type: cell-based; conditions: Trypanosoma brucei
Excerpt: as §2, §4

[6] = system: primary mouse macrophages (PMMs); assay: Host cell cytotoxicity in primary mouse macrophages (PMM); type: cell-based; conditions: CSV supplement; decimal comma
[7] = phosphate buffered saline, pH 7.4, CSV supplement, read-out: Kinetic solubility
[8] = phosphate buffered saline, pH 7.4, phosphate buffered saline pH 7.4, assay range 2.5–200 μM, read-out: solubility (kinetic)
[9] = CSV supplement, decimal comma, read-out: EC50 L. infantum MHOM/MA(BE)/67
[10] = Table 1, mean (standard deviation, number of measurements), read-out: EC50 (μM), inhibition of the growth of L. infantum
[11] = MRC5, Table S1, mean (SD), 2 to 14 measurements, unit not given in Table S1, read-out: In vitro potency, T. cruzi
[12] = TULAHUEN, MRC5, read-out: EC50 T. cruzi Tulahuen C4 (LacZ)
[13] = MDCK-MDR1, pH 7.4, ER, efflux ratio (BA/AB)
[14] = MDCK-MDR1, pH 7.4, MDCK MDR1 - pH 7.4 Efflux Ratio
[15] = CSV supplement, read-out: CLint in vitro Mouse Microsomes
[16] = incubation with mouse liver microsomes, read-out: CLint
[17] = CSV supplement, decimal comma, read-out: EC50 T.b. brucei Squib 427

Compound	chromatographic logD [1]	solubility kinetic [2, 7]	solubility kinetic [2, 8]	t(1/2), Human Microsomes [3]	microsomal CLint [3]	EC50 (L. infantum; [9])	EC50 (L. infantum; [10])	EC50 (T. cruzi; [11])	EC50 (T. cruzi; [12])	EC50 (T. b. rhodesiense)	MRC-5 cells Human Lung Fibroblast Cells (cytotoxicity) (MRC-5 cells)	Papp B→A (MDR1)	efflux ratio (MDR1; [13])	efflux ratio (MDR1; [14])	Papp A→B (MDR1)	t(1/2), Mouse Microsomes ([5]; CSV supplement)	microsomal CLint [5, 15]	microsomal CLint [5, 16]	EC50 (T. b. brucei; [17])	PMM Primary Mouse Macrophages (inf-LMPH) (cytotoxicity) [6]	also measured
CC(C)(C)OC(=O)N[C@H]1Cc2ccc(cc2)Oc2ccc(cc2)C(=O)CNC(=O)[C@H](Cc2ccccc2)NC1=O [Compound 1]	4	24 µg/mL	44 µM	3,5 min	497 µL/min/mg	32.8 µM	33 µM	15 µM	14.6 µM	6 µM	>64 µM	21.4 ×10⁻⁶ cm/s	4.3	4.3	5 ×10⁻⁶ cm/s	<3 min	> 578 µL/min/mg	> 580 µL/min/mg	6.1 µM	48,0 µM	EC50 (T. cruzi; MRC5, Figure 2A, mean (SD) from 2 to 14 measurements, read-out: EC50 T. cruzi): 10 to 30 µM; potency as inhibitor of P. falciparum (in words) [4]: low or no potency; EC50 [4]: 21 µM
CC(=O)Nc1cc2ccc1Oc1ccc(cc1)C[C@H](NC(=O)OC(C)(C)C)C(=O)N[C@@H](Cc1ccccc1)C(=O)NCC2=O [Compound 2]	3.2	101 µg/mL	> 100 µM	6,1 min	285 µL/min/mg		31 µM		41 µM	29 µM	50,5 µM	13.3 ×10⁻⁶ cm/s	19	19.3	0.7 ×10⁻⁶ cm/s	6,0 min	257 µL/min/mg	260 µL/min/mg	37 µM	>64 µM	solubility kinetic ([2]; phosphate buffered saline pH 7.4, assay range 2.5–200 μM, read-out: solubility (kinetic)): 169 µM; potency as inhibitor of P. falciparum (in words) [4]: low or no potency; EC50 [4]: > 25 µM
COc1ccc(C[C@H](NC(=O)OC(C)(C)C)C(=O)N[C@@H](Cc2ccccc2)C(=O)NCC(=O)c2cccc(NC(=O)c3ccccn3)c2)cc1 [Compound 4, tert-Butyl ((S)-3-(4-Methoxyphenyl)-1-oxo-1-(((S)-1-oxo-1-((2-oxo-2-(3-(picolinamido)phenyl)ethyl)amino)-3-phenylpropan-2-yl)amino)propan-2-yl)carbamate]	4.7	4.9 µg/mL	7.3 µM	<3 min	> 578 µL/min/mg		38 µM	64 µM	> 64 µM	6.1 µM	>64 µM	2.4 ×10⁻⁶ cm/s				<3 min	> 578 µL/min/mg	> 580 µL/min/mg	32.7 µM	>64 µM	activity in the L. infantum phenotypic screen (in words) (L. infantum; Table 1): inactive; EC50 (T. b. brucei; Table S1, mean (SD), 2 to 14 measurements, unit not given in Table S1, read-out: In vitro potency, T. b. brucei): 33 µM
CC(C)(C)OC(=O)N[C@H]1CCc2ccc(cc2)Oc2ccc(cc2NC(=O)c2ccccn2)C(=O)CNC(=O)[C@H](Cc2ccccc2)NC1=O [Compound 5, tert-Butyl ((8S,11S)-8-Benzyl-4,7,10-trioxo-3^2-(picolinamido)-2-oxa-6,9-diaza-1,3(1,4)-dibenzenacyclotridecaphane-11-yl)carbamate]	4.8	1.8 µg/mL	2.7 µM	<3 min	> 578 µL/min/mg	16.6 µM	17 µM		18 µM	5.6 µM	>64 µM	17.3 ×10⁻⁶ cm/s	13	13.2	1.3 ×10⁻⁶ cm/s	<3 min	> 578 µL/min/mg	> 580 µL/min/mg	7.4 µM	>64 µM	loss in potency compared to 3, L. infantum (L. infantum; relative to compound 3): ~10 fold
CC(C)(C)OC(=O)N[C@H]1Cc2ccc(cc2)Oc2ccc(cc2NC(=O)c2ccccn2)C(=O)CNC(=O)[C@H](c2ccccc2)NC1=O [Compound 9, tert-Butyl ((8S,11S)-4,7,10-Trioxo-8-phenyl-3^2-(picolinamido)-2-oxa-6,9-diaza-1,3(1,4)-dibenzenacyclododecaphane-11-yl)carbamate]	4.4	10.3 µg/mL	16 µM	8,8 min	197 µL/min/mg		6.6 µM	19 µM	18.9 µM	1.9 µM	>64 µM	4.2 ×10⁻⁶ cm/s	9.9	9.9	0.4 ×10⁻⁶ cm/s	8,4 min	206 µL/min/mg	210 µL/min/mg	7.7 µM	>64 µM	activity as inhibitor of T. b. rhodesiense (in words) (T. b. rhodesiense): moderately active
CC(C)C[C@@H]1NC(=O)[C@@H](NC(=O)OC(C)(C)C)Cc2ccc(cc2)Oc2ccc(cc2NC(=O)c2ccccn2)C(=O)CNC1=O [Compound 10, tert-Butyl ((8S,11S)-8-Isobutyl-4,7,10-trioxo-3^2-(picolinamido)-2-oxa-6,9-diaza-1,3(1,4)-dibenzenacyclododecaphane-11-yl)carbamate]	4.8	4.8 µg/mL	7.6 µM	4,8 min	361 µL/min/mg		2.1 µM		50 µM	2.1 µM	>64 µM	6.8 ×10⁻⁶ cm/s	3.1	3.1	2.2 ×10⁻⁶ cm/s	<3 min	> 578 µL/min/mg	> 580 µL/min/mg	8.5 µM	>64 µM	activity as inhibitor of T. b. rhodesiense (in words) (T. b. rhodesiense): moderately active
